In patent publication US20250000847A1, “TREATMENT OF NEURODEGENERATIVE DISEASES WITH HDAC INHIBITORS” (CASE WESTERN RESERVE UNIVERSITY, priority 2021, published 2025):

Tests used:
[1] = tested on: GBP2+ reactive astrocytes; test: Lipopolysaccharide (LPS) model of neuroinflammation, GBP2+ reactive astrocytes in brain; format: in vivo, mouse
Method: After which, brain tissue was collected from the mice and processed for in situ hybridization with probes targeting GFAP as a general astrocyte marker, and the reactive astrocyte-specific marker GBP2.
For in vivo studies in situ hybridization was performed using RNAscope Multiplex Fluorescent V2 Assay (ACD Bio, 323136) according to manufacturer's instructions for fixed frozen samples. Briefly, tissue was prepared by first dehydrating with increasingly higher percentages of ethanol, then dried, blocked with hydrogen peroxide, followed by antigen retrieval for 5 minutes, dried again, and then protein was digested using provided Protease III. RNA targeting probes purchased from ACD Bio were then annealed at 40° C. for 2 hrs, followed by washing and a series of amplification steps before finally tagging the RNA with Opal Dye fluorophores (Perkin Elmer). In situ hybridization Images were captured on a Hamamatsu Nanozoomer S60 Slide scanner with NDP 2.0 software. Image analysis was performed using Perkin Elmer Columbus automated software.

[2] = tested on: acetylated histone 4 (AcH4); test: Acetylated histone 4 in vivo (target engagement); parameters: species or system mouse; details: chronic daily 10 mg/kg, then two days of 5 mg/kg LPS
Method: Mice were perfused with PBS followed by 4% paraformaldehyde, after which brains were extracted and cryopreserved in 30% sucrose then frozen in OCT and sectioned. The stain slides were washed with PBS then incubated overnight with primary antibody against acetyl-Histone H4 (EMD Millipore, 06-866). After primary incubation slides were then washed and labeled with AlexaFluor secondary antibodies (ThermoFisher). Images were captured on a Hamamatsu Nanozoomer S60 Slide scanner with NDP 2.0 software. Image analysis was performed using Perkin Elmer Columbus automated software.

CCL5 = CCL5 secretion by reactive astrocytes (ELISA); format: cell-based, mouse; details: for reduction of CCL5 secretion: compared to vehicle control
Method: Astrocytes were plated and treated exactly as described for the antigen cross presentation assay. However, after 24 hrs of incubation with either reactive astrocyte driving factors alone or with HDAC inhibitor treatment, conditioned media from the cells was collected and assayed for CCL5 using a commercially available colorimetric ELISA kit (RnD Cat #: DY478-05). Data was then fit to a standard four parameter logistic (4PL) curve and presented as pg/mL/cell, normalized to reactive astrocytes plus DMSO vehicle (FIG. 4).
Media was collected from mouse P2 primary astrocytes that had been cultured for 24 hrs in the presence of cytokines with and without HDAC3 inhibitors and compared to media from astrocytes not treated with cytokines. The concentration of CCL5, a cytokine secreted by reactive astrocytes, was measured in each of the respective media conditions based on the direct adsorption of CCL5 to a pre-coated capture antibody on the ELISA assay plate. The ELISA sandwich assay was performed according to the manufacturer's instructions (DY478-05, R&D Systems). Relative CCL5 concentration were measured based on absorbance measured by a plate reader.

spinal cord LPC lesion = test: Lysolecithin (LPC) injection model of focal tissue damage; format: in vivo, mouse
Method: This was based on a toxin-based model of CNS tissue damage, where lysolecithin (lysophosphatidylcholine (LPC)) is injected into the dorsal column of the spinal cord leading to cell death, demyelination, and axonal damage at 4 days post lesion (dpl).
Focal tissue damage in the spinal cord was induced by the injection of 1% LPC solution. 10-12 week old C57BL/6 female mice were anesthetized using isoflurane and a T10 laminectomy was performed. 1 μL of 1% LPC was infused into the dorsal column at a rate of […]. The animals were euthanized at day twelve after the laminectomy (n=6-9 per group). […] Mice were then processed for immunohistochemistry or electron microscopy.
Samples were processed as previously described (Najm et al., Nat Methods 8, 957-962, doi:10.1038/nmeth.1712 (2011)). Briefly, Mice were perfused with 4% PFA, 2% glutaraldehyde, and 0.1 M sodium cacodylate. Spinal cords were extracted and samples were osmicated, stained en bloc with uranyl acetate and embedded in EMbed 812, an Epon-812 substitute (EMS). Thin sections were cut, carbon-coated and imaged either on JEOL JEM-1200-EX electron microscope or a T12 electron microscope (FEI).

[3] = tested on: GBP2+ reactive astrocytes; test: Primary high-throughput screen, formation of GBP2+ damaging reactive astrocytes; format: cell-based, mouse; details: 2 μM, TNFα, IL-1α, C1q, 24 hours
Method: Specifically, resting astrocytes were first thawed and plated onto 384-well plates at a density of about 500 cells/mm^2. A Perkin Elmer Janus G3 Varispan Automated Workstation was then used to treat cells with candidate small-molecules from a library of 3115 bioactive small-molecules, with one type of small molecule per well, at a concentration of about 2 μM in 384-well plates, followed one hour later by exposing the pre-treated astrocytes with such reactive astrocyte driving factors as IL-1α (3 ng/mL, Sigma #I3901), C1q (400 ng/mL, MyBioSource #MBS143105), and TNFα (30 ng/mL, R&D Systems #210-TA-020). […]
The cells were then imaged using the PerkinElmer Operetta CLS High-Content Analysis System. Images were analyzed using automated PerkinElmer Columbus Image Analysis Software.
Hits were then determined as those compounds that decreased the number of GBP2^+ reactive astrocytes by greater than 80% compared to reactive astrocytes plus DMSO vehicle control wells. […]
For screening, all liquid handling was performed using a BioTek EL406 Washer Dispenser. […] Images were analyzed using automated PerkinElmer Columbus Image Analysis Software. For analysis, toxic chemicals were first removed; a chemical was considered toxic if it decreased the counted number of live cells in the well by greater than 30% compared to reactive astrocytes plus DMSO vehicle control wells. […]

[4] = 10 mg/kg daily, lesion at 12 dpl

Nc1cc(F)ccc1NC(=O)/C=C/c1cnn(C/C=C/c2ccccc2)c1 [RGFP966]
percentage of GFAP+ astrocytes expressing GBP2 ([1]; 10 mg/kg i.p. daily plus 5 mg/kg LPS, frontal cortex and corpus callosum, compared to vehicle plus LPS): lower percentage (about half)
levels of GBP2+ reactive astrocytes ([1]; chronic treatment prior to LPS challenge, frontal cortex, cerebellum, brainstem, and corpus callosum): decreased levels
levels of acetylated histone 4 (AcH4) [2]: increased
reduction of CCL5 secretion (CCL5; 2.5 μM): about 70%
reduction of CCL5 secretion (CCL5; 5.0 μM): more than 80%
secretion of CCL5 by reactive astrocytes (CCL5; FIG. 4): significantly decrease
tissue repair (spinal cord LPC lesion; 10 mg/kg daily from −1 dpl, at 12 dpl, compared to vehicle-treated LPC mice): accelerated tissue repair
axons/mm^2 (spinal cord LPC lesion; [4]): increased
percentage of axons remyelinated (spinal cord LPC lesion; [4]): increased
total axons in lesions (spinal cord LPC lesion; [4]): increased
total remyelinated (spinal cord LPC lesion; [4]): increased
inhibition of the formation of proinflammatory toxic (reactive) astrocytes [3]: robustly inhibit
